Reference: patent publication US20240122954A1 (YEP BIO CO. LTD., priority 2021, published 2024)

Tests used:
[1] = tested on: astrocytes; assay: Cytokine secretion of LPS-treated astrocytes (multiplexing of conditioned media); type: cell-based, rats; conditions: conditioned media after 24 hours
Protocol: In order to more accurately study the above effect, the secretion of cytokines was observed simultaneously with the effect of inhibiting the activity of astrocytes. After 24 hours of treatment with LPS and drugs, conditioned media were collected and changes in pro-inflammatory cytokines (TNFα) and anti-inflammatory cytokines (IL-10) were examined.

[2] = tested on: microglia; assay: Cytokine secretion of LPS-treated microglia (multiplexing of conditioned media); type: cell-based; conditions: conditioned media after 24 hours
[3] = tested on: BV2 cells, a microglia cell line; assay: Inhibition of LPS-induced microglia activity (cell number, Iba1 fluorescence intensity); type: cell-based; conditions: for fluorescence intensity of Iba1 (FIG. 8) / number of cells (FIG. 8): LPS-treated microglia, 24 hours
Protocol: (§1) BV2 cells were cultured in high glucose DMEM medium containing 10% FBS and penicillin-streptomycin solution (5000 units/ml penicillin, 5 mg/ml streptomycin, Corning, USA) in a cell incubator at 37° C. in 5% CO2, which was used by subculturing three times a week therein.
(§2) Cultured BV2 cells were harvested using 0.1% trypsin to obtain a population, and cultured in 96-well plates pre-coated with Poly-D-Lysine (Sigma).
BV2 cells, a microglia cell line, were treated with LPS to induce microglia activation and inflammation, and eleutheroside B was treated at a concentration of 1 mM to 0.1 nM. The proliferation number and morphology changes after 24 hours of eleutheroside B treatment were quantified, and the activity level of microglial cells was verified by the fluorescence intensity of Iba1 (FIG. 6).
In order to confirm the regulation of the inflammatory response through the inhibition of microglia activity by eleutheroside B in a more precise way, high content imaging was analyzed by classifying into the number of proliferated cells and the fluorescence intensity of Iba1, and the results are shown in FIG. 8.

[4] = tested on: BV2 cells; assay: Cytotoxicity of eleutheroside B to microglia (CCK-8/WST-8 survival rate); type: cell-based; conditions: 24 hours, mean±standard deviation
Protocol: as §1, §2
In order to check the cytotoxicity of eleutheroside B, BV2 cells (3×10^5 cells/well) were cultured in a 96-well culture plate for 24 hours, and then treated with various concentrations of eleutheroside B, followed by incubation for 24 hours. After 24 hours, the medium was removed and WST-8 [2-(2-methoxy-4-nitrophenyl)-3-(4-nitrophenyl)-5-(2,4-disulfophenyl)-2H-tetrazolium (Cell Counting Kit-8 (CCK-8), dojindo)] was added at a concentration of 100 uL/mL to induce a reduction reaction while incubating for 1 hour, and then absorbance (450 nm) was measured. Cell viability (%) (viability (%)=(treated group−negative control)/(positive control−negative control)×100) was calculated using the eleutheroside B treated group and the untreated control group.

[5] = tested on: 5×FAD; assay: Working memory ability (Y-maze) in 5×FAD Alzheimer's disease animal model; type: in vivo, mouse; conditions: 50 or 150 mg/kg intraperitoneally twice a week from 4 months, measured at 6 months
Protocol: (§3) In 5×FAD, an animal model of Alzheimer's disease, amyloid protein is deposited from 2.5 months and cognitive function is impaired from 6 months. Accordingly, eleutheroside B (vehicle, 50 or 150 mg/kg) was intraperitoneally administered twice a week from 4 months, and working memory ability was measured at 6 months when cognitive function was impaired. The experimental groups were 3 animals each of WT+vehicle, TG+vehicle, TG+50 mg/kg (TG_E.B(L)), and TG+150 mg/kg (TG_E.B(H)) of the same age as TG. Working memory ability was measured with Y-maze, and pre-adaptation training for the maze was performed the day before the maze experiment.
Working memory performance was performed by sequentially moving through three passages for 8 minutes in a Y-shaped maze to check whether the movement to the previous passage was remembered, and the degree of cognitive impairment was confirmed by calculating the ratio of sequentially crossing the three passages.

[6] = tested on: neural stem cells; assay: Neurite activity from neural stem cells of B6;SJL-Tg(APPSWE)2576Kha transgenic mice; type: cell-based; conditions: 0.01 pg/mL and 1 pg/mL, compared to the control group
Protocol: (§4) B6;SJL-Tg(APPSWE)2576Kha, a genetically modified mouse for […], was used as an in-vitro brain disease model. Neural stem cells were isolated from subventricular zone (SVZ) tissues of transgenic newborn mice and neurospheres were cultured. In addition, neurosphere cells were induced to attach to the bottom with 5% FBS+F12/DMEM medium for 48 hours, and to observe differentiation potential, eleutheroside B in 5% BS+F12/DMEM medium was added to the cells, and neurite activity was observed under a microscope. In addition, the neuronal cell differentiation potential using the Neuro-2a cell line, which is a neuroblast, was confirmed. To confirm differentiation, neural differentiation markers such as DCX, Tuj1, neuroD, and NeuN were confirmed by qPCR.
In order to confirm the activity of neurite from neural stem cells according to eleutheroside B treatment, B6;SJL-Tg(APPSWE)2576Kha, a genetically modified mouse for degenerative brain disease, was used as an in-vitro brain disease model. Neural stem cells were isolated from the subventricular zone (SVZ) tissue of genetically modified newborn mice, and the number of cells to be used in the experiment was secured through neurosphere culture. […]

[7] = tested on: microglia (Iba 1); assay: Brain immunohistochemistry of microglia activity (Iba 1) in hippocampus of 5×FAD; type: in vivo, mouse; conditions: 50 or 150 mg/kg intraperitoneally twice a week
Protocol: as §3
(§5) In order to confine the pathological changes related to cognitive improvement, blood was removed by perfusion through the heart. The blood-free brain was fixed in 4% paraformaldehyde for one day, then made into a paraffin block and fabricated into 4 μm tissue sections for histological staining. The activities of astrocytes (GFAP) and microglia (Iba 1) were measured by confocal microscopy in the dentate gyrus, CA1, and CA3 regions of the hippocampus and the entorhinal cortex, which are major damaged areas in Alzheimer's disease.

[8] = tested on: astrocytes; assay: Inhibition of LPS-induced astrocyte activity (cell number, cell area, GFAP intensity; high content imaging); type: cell-based, rats; conditions: LPS-activated astrocytes
Protocol: The brains of 1-2 day old rats were excised, separated from the cerebral cortex, and cultured. That is, the […] cortex was divided into single cells in high-glucose DMEM medium containing 10% FBS and penicillin-streptomycin solution (5000 units/ml penicillin, 5 mg/ml streptomycin, Corning, USA), and cultured in a 75-cm2T flask. (0.5 hemispheres/flask) in a cell incubator at 5% CO2 and 37° C.
After 1 week of culture, microglia were removed by shaking at 250 rpm for 4 hours, and the cultured astrocytes were harvested using 0.1% trypsin to obtain an astrocyte population. Astrocytes were cultured in 6-well plates previously coated with Poly-D-Lysine (Sigma).
Astrocytes were used after primary culture was isolated from the brain of pup within 1 to 3 days after birth, and the separated astrocytes were treated with LPS at expressing the lowest concentration of IL-6. The drug treatment was performed simultaneously with LPS, and the activity of astrocytes was evaluated through the number of proliferated cells and changes in morphology (FIG. 2).

[9] = tested on: Neuro-2a; assay: Neuronal differentiation marker analysis by qPCR in neuroblast cell line; type: cell-based; conditions: compared to the control
Protocol: as §4
In order to examine this at a molecular level, RNA analysis of neuronal differentiation markers (Sox2, Nestin, NeuroD, DCX, Tuj-1, NeuN) was performed, and the results are shown in FIG. 11.
When confirming the neuronal differentiation marker, a neuroblast cell line, Neuro-2a was used, and the differentiation was confirmed by qPCR to observe if the amoeba-type metaphase cells were differentiated into neurons by the drug.

[10] = tested on: BV2 cells; conditions: according to the report; cited from earlier work
[11] = tested on: astrocytes (GFAP); assay: Brain immunohistochemistry of astrocyte activity (GFAP) in hippocampus of 5×FAD; type: in vivo, mouse; conditions: 50 or 150 mg/kg intraperitoneally twice a week
Protocol: as §3, §5

[12] = 1-10 nM drug, compared to LPS activity

COc1cc2c(cc1OC)C(=O)C(CC1CCN(Cc3ccccc3)CC1)C2 (centres unmarked) [donepezil, reference compound]
anti-inflammatory cytokine IL-10 secretion [1]: did not affect cytokine secretion | pro-inflammatory cytokine TNF-α secretion [1]: did not affect cytokine secretion | anti-inflammatory cytokine IL-10 secretion [2]: does not affect cytokine secretion | pro-inflammatory cytokine TNF-α secretion [2]: does not affect cytokine secretion | fluorescence intensity of Iba1 (FIG. 8) [3]: relatively less microglial activity inhibition pattern than eleutheroside B | number of cells (FIG. 8) [3]: inhibiting microglia apoptosis

COc1cc(/C=C/CO)cc(OC)c1O[C@@H]1O[C@H](CO)[C@@H](O)[C@H](O)[C@H]1O [eleutheroside B]
survival rate ([4]; 20 uM): 92±13.3% | survival rate ([4]; 40 uM): 88±24.8% | working memory ability (Y-maze) [5]: almost the same remarkable cognitive ability improvement as the control group | anti-inflammatory cytokine IL-10 secretion [1]: increased | pro-inflammatory cytokine TNF-α secretion [1]: decreased | neurites (FIG. 10) [6]: showed an increase in neurites | fluorescence intensity of Iba 1 in hippocampus (FIG. 16) [7]: lower than that of the Alzheimer's disease animal model | microglia / inflammation in CA1 of the hippocampus (FIG. 18) [7]: greatly reduced almost as in the normal state | inflammation / activity of microglial cells in all areas of the hippocampus (FIG. 17) ([7]; compared to the Alzheimer's disease animal model): suppressed | GFAP fluorescence intensity (FIG. 3) ([8]; 0.01 pg of eleutheroside B): reduced to almost the same intensity as the control | cell area (FIG. 4) [8, 12]: reduced | intensity of GFAP (FIG. 4) [8, 12]: reduced | number of proliferated cells (FIG. 4) [8, 12]: showed cell proliferation compared to LPS activity | DCX (differentiation marker) [9]: slight increase | Tuj1 (differentiation marker) [9]: slight increase | nestine (expansion phase marker) [9]: significant increase | neuN (integration phase marker) [9]: significant increase | neuroD (differentiation phase marker) [9]: significant increase | sox2 (expansion phase marker) [9]: significant increase | anti-inflammatory cytokine IL-10 secretion [2]: increased | pro-inflammatory cytokine TNF-α secretion [2]: significant decrease in the pro-inflammatory cytokine TNF-α was not confirmed | concentration at which cytotoxicity was reported [10]: 40 µM | activity of astrocytes / inflammation in CA1 of the hippocampus (FIG. 15) [11]: greatly reduced | Iba1 fluorescence intensity (FIG. 7) ([3]; LPS-activated microglia, 10 nM): reduced to almost the same intensity as that of the control | fluorescence intensity of Iba1 (FIG. 8) [3]: decrease | number of cells (FIG. 8) [3]: increased
